Reference: US11583217B2, “Neurophysiological data analysis using spatiotemporal parcellation” (Firefly Neuroscience Ltd., priority 2012, dated 2023)

How the values were obtained:
Type in all cases: in vivo, human
ADHD subject = test: BNA pattern similarity from EEG data of ADHD subjects treated with MPH
Description: The BNA patterns shown in FIGS. 6A-6D are associated subject-specific BNA patterns constructed from EEG data recorded from a particular ADHD subject. The black dots in FIGS. 6A-6D show the locations of the EEG electrodes. The color codes in these BNA patterns are the same as defined above. The subject-specific BNA patterns shown in FIGS. 6A-6B describe the association of the ADHD subject to a group of untreated ADHD subjects, and the BNA patterns shown in FIGS. 6C-6D describe the association of the ADHD subject to a group of ADHD subjects all treated with methylphenidate (MPH). The subject-specific BNA patterns shown in FIGS. 6A and 6C are based on EEG data recorded from the ADHD subject before any treatment, and subject-specific BNA patterns shown in FIGS. 6B and 6D are based on EEG data recorded from the ADHD subject following a treatment with MPH.
The baseline annotated BNA pattern constructed from the group of untreated ADHD subjects, and the baseline annotated BNA pattern constructed from the same group of subjects, but following treatment with MPH are shown in FIGS. 6E and 6F, respectively.
The calculated similarity corresponding to the BNA pattern of FIG. 6A is 0.73, the calculated similarity corresponding to the BNA pattern of FIG. 6B is 0.19, the calculated similarity corresponding to the BNA pattern of FIG. 6C is 0.56, and the calculated similarity corresponding to the BNA pattern of FIG. 6D is 0.6.
The BNA patterns shown in FIGS. 7A-7D were constructed from EEG data recorded from a different ADHD subject, which was also treated with MPH according to the same protocol as described above with respect to the responder subject of FIGS. 6A-6D. The black dots in FIGS. 7A-7D show the locations of the EEG electrodes, and the color codes in these BNA patterns is the same as defined above. Thus, the subject-specific BNA patterns shown in FIGS. 7A-7B describe the association of the ADHD subject to a group of untreated ADHD subjects, and the BNA patterns shown in FIGS. 7C-7D describe the association of the ADHD subject to a group of ADHD subjects all treated with methylphenidate (MPH). The subject-specific BNA patterns shown in FIGS. 7A and 7C are based on EEG data recorded from the ADHD subject before any treatment, and subject-specific BNA patterns shown in FIGS. 7B and 7D are based on EEG data recorded from the ADHD subject following a treatment with MPH.
The calculated similarity corresponding to the BNA pattern of FIG. 7A is 0, the calculated similarity corresponding to the BNA pattern of FIG. 7B is 0, the calculated similarity corresponding to the BNA pattern of FIG. 7C is 0.06, and the calculated similarity corresponding to the BNA pattern of FIG. 7D is 0.

groups of subjects = test: Group BNA patterns from EEG data during working memory test (cue/probe); details: vs placebo
Description: FIGS. 10A-10H show group BNA patterns constructed from EEG data recorded from two groups of subjects during a working memory test. The black dots in FIGS. 10A-10H show the locations of the EEG electrodes, and the color codes in these BNA patterns is the same as defined above. During the test, each subject of the group was asked to memorize an image of a human face (referred to as the “cue”). Two seconds later, the subject was again presented with an image of a human face (referred to as the “probe”) and was asked to determine whether the probe matches the cue.
FIGS. 10A and 10B are group BNA patterns constructed following treatment with a placebo (referred to below as placebo A), and FIGS. 10C and 10D are group BNA patterns constructed following treatment with a Scopolamine. The BNA patterns of the second group are shown in FIGS. 10E-10H, where FIGS. 10E and 10F are group BNA patterns constructed following treatment with a placebo (referred to below as placebo B), and FIGS. 10G and 10H are BNA patterns constructed following treatment with a Ketamine.
The BNA pattern of FIGS. 10A, 10C, 10E and 10G were constructed from the data acquired during the time at which the cue was presented and are recognized by the present inventor as containing information pertaining to the memorization process in the brain (also known in the literature as “encoding”). The BNA patterns of FIGS. 10B, 10D, 10F and 10H were constructed from the data acquired during the time at which the probe was presented, and are recognized by the present inventor as containing information pertaining to the retrieval process in the brain. It is noted that the BNA patterns of FIGS. 10A-10H describe differentiating activity networks. Thus, for example, the BNA pattern of FIG. 10A describes the brain activity during […] that most differentiated between placebo A and Scopolamine, and the BNA pattern of FIG. 10B describes the brain activity during […] that most differentiated between placebo B and Ketamine.

[1] = test system: healthy volunteer subjects; test: BNA pattern similarity from EEG data of healthy volunteers during attention oddball task, scopolamine vs placebo
Description: FIGS. 8A-8D show associated subject-specific BNA patterns constructed from EEG data recorded from two healthy volunteer subjects. The black dots in FIGS. 8A-8D show the locations of the EEG electrodes, and the color codes in these BNA patterns are the same as defined above. The subject-specific BNA patterns shown in FIGS. 8A-8D describe the association of the subjects to a group of healthy subjects following treatment with a placebo drug and while performing an attention task related oddball task.
FIGS. 8A and 8C are subject-specific BNA patterns constructed from EEG data collected from a first subject (FIG. 8A) and a second subject (FIG. 8C) following treatment with a placebo, and FIGS. 8B and 8D are subject-specific BNA patterns constructed from EEG data collected from the first subject (FIG. 8B) and the second subject (FIG. 8D) following treatment with a scopolamine drug. Scopolamine is an anticholinergic drug with inhibitory effect on M2-cholinergic receptors of excited type. It has an inhibitory effect on the cerebral cortex, typically inducing slight-anesthetic effect.
(§1) The calculated similarities are 0.937, 0.079, 1.0 and 0.94, respectively. It is recognized by the present inventors that these similarity values indicate that the responsivity to scopolamine is high for the first subject (FIGS. 8A and 8B) and low for the second subject (FIGS. 8C and 8D).

[2] = test system: healthy volunteer subjects; test: Clinical observation of behavioral endpoint following scopolamine; details: following treatment with scopolamine
Description: as §1

healthy volunteers = test: Scopolamine induced cognitive impairment model, ΔBNA scores in Auditory Oddball Task; details: scopolamine 0.4 mg, Novel stimulus, connectivity score; only 2 patients on placebo
Description: The task chosen for this study was the Auditory Oddball Task, but other tasks are not excluded from the scope of the present invention. FIG. 21 is a schematic representation of an Auditory Oddball Task used in this study. The task included 600 repetitive 1000 ms auditory stimulations of which 80% were 2000 Hz stimuli (Frequent—blue circles), 10% were 1000 Hz stimuli requiring a motor response (Target—red circles) and 10% were rare non-targets composed of various sounds (Novel—yellow star). The stimuli were separated by 1500 ms intervals. The sound was delivered through a headset at a sound pressure level of 70 dB.
• Repeatability: Within-subject BNA score repeatability was assessed by computing the Intraclass Correlation. • Normality Tests: Normality of ΔBNA distributions was evaluated using the Kolmogorov-Smirnov test of normality (p≥0.200) and validated with corresponding Q-Q plots. • SEM Computation: The change over time in the BNA Scores of a subject/patient from baseline (ΔBNA) is evaluated in terms of standard error of measurements (SEM) against the Normative Database to determine likelihood of true change.
A pharmacological model study included 13 healthy volunteers of both genders, Aged 18-45. […] The second and third sessions were at random order, double blind. ΔBNA Score values (Baseline—Placebo and Baseline—Drug) were evaluated against SEM values. […]

In the case of `COC(=O)C(c1ccccc1)C1CCCCN1` (stereo not drawn) [MPH, methylphenidate], the “responsiveness to treatment inferred from similarity values” (ADHD subject; ADHD subject of FIGS. 6A-6D) is reported as “responsive to the treatment”, the “responsiveness to treatment inferred from similarity values” (ADHD subject; ADHD subject of FIGS. 7A-7D) is reported as “not responsive to the treatment” and the “BNA pattern similarity to baseline BNA pattern of untreated ADHD group” value (ADHD subject; different ADHD subject, following MPH (FIG. 7B), 0 before treatment) is reported as 0. For the same compound, the “BNA pattern similarity to baseline BNA pattern of MPH-treated ADHD group” value (ADHD subject; different ADHD subject, following MPH (FIG. 7D), 0.06 before treatment) was 0, the “BNA pattern similarity to baseline BNA pattern of untreated ADHD group” value (ADHD subject; responder ADHD subject, following single dose MPH (FIG. 6B), 0.73 before treatment) was 0.19 and the “BNA pattern similarity to baseline BNA pattern of MPH-treated ADHD group” value (ADHD subject; responder ADHD subject, following single dose MPH (FIG. 6D), 0.56 before treatment) was 0.6.

For `CNC1(c2ccccc2Cl)CCCCC1=O` (stereo not drawn) [ketamine], the “central and frontal activation in the group BNA pattern” value (groups of subjects) was “increased central and frontal activation”, the “fronto-parietal part of the group BNA pattern” value (groups of subjects) was “No significant change” and the “right lateralization in the group BNA pattern” value (groups of subjects) was “decreased right lateralization”.

With `CN1[C@@H]2C[C@@H](OC(=O)[C@H](CO)c3ccccc3)C[C@H]1[C@@H]1O[C@@H]12` [scopolamine] the responsivity to scopolamine ([1]; first subject (FIGS. 8A and 8B)) was “high”, the “BNA pattern similarity to baseline BNA pattern of placebo-treated healthy group” value ([1]; first subject, following scopolamine (FIG. 8B), 0.937 after placebo) was 0.079 and the responsivity to scopolamine ([1]; second subject (FIGS. 8C and 8D)) was “low”. The “BNA pattern similarity to baseline BNA pattern of placebo-treated healthy group” value ([1]; second subject, following scopolamine (FIG. 8D), 1.0 after placebo) was 0.94, the “decrease in behavioral endpoint” value ([2]; first subject) was 70% and the “change in behavioral endpoint” value ([2]; second subject) was “no change”. For the same compound, the “central and frontal activation in the group BNA pattern” value (groups of subjects) was “extensive compensatory central and frontal activation”, the “fronto-parietal part of the group BNA pattern” value (groups of subjects) was “low connectivity between frontal and parietal regions” and the “patients with post-treatment BNA scores more than 2 SEM lower than the baseline score” value (healthy volunteers) was “Eight out of 13”.
